{
  "source": "patent US10894059B2",
  "about": "“NADH compound composition, and preparation and use thereof” (BONTAC BIO-ENGINEERING (SHENZHEN) CO., LTD, priority 2017, dated 2021)",
  "key": {"[1]": {"tested_on": "mice fed with high fat feed", "assay": "Comparative pharmacological evaluation in obese mice (high fat feed model)", "type": "in vivo", "settings": "gavage once a day, 50 mg according to L-carnitine, 4 weeks", "method": "Fifty male mice are selected at 6 weeks of age. The basal feed is fed for two weeks before the start of the experiment, and the initial body weight is 26±2 g. All experimental groups are randomly divided into 5 groups of 10 each, and the groups were as follows. (1) obesity experiment group: 1 group; (2) obesity experiment group: 2 groups; (3) obese control group; (4) obese blank group; (5) normal blank group Cage feeding, 5 in 1 cage; ambient temperature of 22±2° C., humidity of 45˜65%; the light illumination alternates for 12 h, and the mice are free to eat and drink. Among them, the normal blank group is fed with normal feed, and the other 4 groups are fed with high fat feed; changes in body weight are recorded twice a week; the feeding process lasts 6 weeks to establish the model. Group (1) is given a solution of the NADH compound composition prepared in Embodiment 1 by gavage once a day; Group (2) is given a mixture of NADH and L-carnitine in Embodiment 1 (without other ingredients) by gavage once a day; Group (3) is given L-carnitine by gavage once a day; the amount of administration for Group (1), Group (2) and Group (3) is 50 mg according to L-carnitine; during the period, 5 groups of mice are fed with normal diet in free diet, and continued to be observed for 4 weeks. […]"}, "[2]": {"settings": "people taking L-carnitine for weight loss, as much as 1˜3 g; cited from earlier work"}},
  "data": [
    {"smiles": "C[N+](C)(C)C[C@H](O)CC(=O)[O-]", "note": "[L-carnitine, β-hydroxy γ-trimethylammonium butyrate]", "values": [
      {"measurement": "Body fat ratio (%)", "setting": "[1]; (fat around kidney + fat around testicles)/body weight after test*100", "result": "2.35 ± 2.69", "unit": "%"},
      {"measurement": "Body weight growth rate (%)", "setting": "[1]; weight growth/experimental initial weight*100", "result": "44.98 ± 3.44", "unit": "%"},
      {"measurement": "absolute bioavailability", "setting": "[2]", "result": "15.9±4.9", "unit": "%"}
    ]}
  ]
}
